Experimental data from ChEMBL document CHEMBL1129035, “Tyrosine kinase inhibitors. 9. Synthesis and evaluation of fused tricyclic quinazoline analogues as ATP site inhibitors of the tyrosine kinase activity of the epidermal growth factor receptor” (J Med Chem, 1996).

Tests used:
[1] = biological target: T1, Epidermal growth factor receptor (Homo sapiens, UniProt P00533); test: Inhibition of tyrosine kinase activity of Epidermal growth factor receptor from human A431 carcinoma cells
[2] = biological target: T1, Epidermal growth factor receptor; test: Inhibition of tyrosine kinase activity of Epidermal growth factor receptor from human A431 cells
[3] = Inhibitory activity against v-src enzyme.
[4] = biological target: Fibroblast growth factor receptor (Mus musculus, UniProt P21803+Q03142+P16092+Q61851); test: Inhibition of FGF-mediated mitogenesis in Swiss 3T3 cells; assay type: functional, cell-based
[5] = biological target: Fibroblast growth factor receptor (Homo sapiens, UniProt P22607+P11362+P22455+P21802); test: Inhibition of Fibroblast growth factor receptor; assay type: protein assay
[6] = biological target: Protein kinase C (PKC); test: Inhibition of Protein kinase C; assay type: protein assay
[7] = biological target: Proto-oncogene tyrosine-protein kinase Src (Homo sapiens, UniProt P12931); test: Inhibition of c-src enzyme.
Chain of Proto-oncogene tyrosine-protein kinase Src (P12931 2-536 limits assumed): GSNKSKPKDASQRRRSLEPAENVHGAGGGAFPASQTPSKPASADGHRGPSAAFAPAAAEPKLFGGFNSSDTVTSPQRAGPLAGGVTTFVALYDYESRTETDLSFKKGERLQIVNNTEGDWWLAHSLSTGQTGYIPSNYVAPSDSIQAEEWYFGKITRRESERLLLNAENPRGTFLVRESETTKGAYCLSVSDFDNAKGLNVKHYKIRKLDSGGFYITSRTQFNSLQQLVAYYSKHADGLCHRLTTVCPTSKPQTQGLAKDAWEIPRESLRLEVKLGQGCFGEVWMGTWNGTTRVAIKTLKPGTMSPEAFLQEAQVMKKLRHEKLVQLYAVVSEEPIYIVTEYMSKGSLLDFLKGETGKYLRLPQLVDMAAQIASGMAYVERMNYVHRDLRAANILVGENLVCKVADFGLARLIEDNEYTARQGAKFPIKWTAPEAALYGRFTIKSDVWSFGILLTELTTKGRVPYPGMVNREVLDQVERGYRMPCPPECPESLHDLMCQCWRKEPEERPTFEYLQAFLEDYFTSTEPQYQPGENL

[8] = Inhibition of Platelet-derived growth factor receptor
[9] = biological target: Platelet-derived growth factor receptor (Mus musculus, UniProt P05622+P26618); test: Inhibition of PDGF-mediated mitogenesis in Swiss 3T3 cells; assay type: functional, cell-based
[10] = biological target: Insulin receptor (Homo sapiens, UniProt P06213); test: Inhibition of Insulin receptor.
Chain of Insulin receptor (P06213 28-758 limits assumed): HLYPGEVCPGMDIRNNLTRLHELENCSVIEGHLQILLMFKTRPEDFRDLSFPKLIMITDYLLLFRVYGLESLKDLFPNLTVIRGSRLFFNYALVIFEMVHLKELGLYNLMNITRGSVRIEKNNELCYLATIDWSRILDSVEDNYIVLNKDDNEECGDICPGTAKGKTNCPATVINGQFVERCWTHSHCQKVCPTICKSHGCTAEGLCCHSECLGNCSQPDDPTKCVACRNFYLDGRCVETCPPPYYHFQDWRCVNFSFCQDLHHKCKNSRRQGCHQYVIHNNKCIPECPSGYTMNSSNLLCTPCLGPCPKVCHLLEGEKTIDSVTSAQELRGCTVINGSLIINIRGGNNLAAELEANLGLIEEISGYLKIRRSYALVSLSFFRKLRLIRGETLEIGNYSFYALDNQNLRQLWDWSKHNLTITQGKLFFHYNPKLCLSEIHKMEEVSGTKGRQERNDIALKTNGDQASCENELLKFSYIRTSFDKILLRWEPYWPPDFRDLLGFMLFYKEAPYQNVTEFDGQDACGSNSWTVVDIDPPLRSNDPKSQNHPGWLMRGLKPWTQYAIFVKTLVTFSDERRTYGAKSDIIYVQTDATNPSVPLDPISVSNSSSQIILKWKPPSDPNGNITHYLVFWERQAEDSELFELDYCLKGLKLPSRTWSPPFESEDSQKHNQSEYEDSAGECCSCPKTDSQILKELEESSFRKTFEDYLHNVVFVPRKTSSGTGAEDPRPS
Chain of Insulin receptor (P06213 763-1382 limits assumed): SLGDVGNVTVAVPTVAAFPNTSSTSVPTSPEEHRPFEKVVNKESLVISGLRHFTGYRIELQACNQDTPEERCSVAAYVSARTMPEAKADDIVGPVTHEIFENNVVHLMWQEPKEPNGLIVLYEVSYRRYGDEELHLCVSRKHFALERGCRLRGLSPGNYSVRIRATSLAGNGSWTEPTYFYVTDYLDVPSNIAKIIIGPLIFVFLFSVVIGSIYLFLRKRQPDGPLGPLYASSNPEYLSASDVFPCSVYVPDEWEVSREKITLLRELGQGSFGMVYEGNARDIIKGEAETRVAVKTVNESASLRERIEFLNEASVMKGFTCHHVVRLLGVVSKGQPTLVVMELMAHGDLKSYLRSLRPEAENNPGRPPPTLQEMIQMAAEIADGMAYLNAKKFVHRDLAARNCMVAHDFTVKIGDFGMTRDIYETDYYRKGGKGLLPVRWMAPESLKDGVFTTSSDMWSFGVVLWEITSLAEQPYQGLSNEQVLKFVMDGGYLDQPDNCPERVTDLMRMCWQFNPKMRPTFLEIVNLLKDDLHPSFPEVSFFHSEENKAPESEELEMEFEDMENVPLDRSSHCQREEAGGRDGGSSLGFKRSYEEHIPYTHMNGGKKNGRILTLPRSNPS

T1 sequence (P00533 whole entry): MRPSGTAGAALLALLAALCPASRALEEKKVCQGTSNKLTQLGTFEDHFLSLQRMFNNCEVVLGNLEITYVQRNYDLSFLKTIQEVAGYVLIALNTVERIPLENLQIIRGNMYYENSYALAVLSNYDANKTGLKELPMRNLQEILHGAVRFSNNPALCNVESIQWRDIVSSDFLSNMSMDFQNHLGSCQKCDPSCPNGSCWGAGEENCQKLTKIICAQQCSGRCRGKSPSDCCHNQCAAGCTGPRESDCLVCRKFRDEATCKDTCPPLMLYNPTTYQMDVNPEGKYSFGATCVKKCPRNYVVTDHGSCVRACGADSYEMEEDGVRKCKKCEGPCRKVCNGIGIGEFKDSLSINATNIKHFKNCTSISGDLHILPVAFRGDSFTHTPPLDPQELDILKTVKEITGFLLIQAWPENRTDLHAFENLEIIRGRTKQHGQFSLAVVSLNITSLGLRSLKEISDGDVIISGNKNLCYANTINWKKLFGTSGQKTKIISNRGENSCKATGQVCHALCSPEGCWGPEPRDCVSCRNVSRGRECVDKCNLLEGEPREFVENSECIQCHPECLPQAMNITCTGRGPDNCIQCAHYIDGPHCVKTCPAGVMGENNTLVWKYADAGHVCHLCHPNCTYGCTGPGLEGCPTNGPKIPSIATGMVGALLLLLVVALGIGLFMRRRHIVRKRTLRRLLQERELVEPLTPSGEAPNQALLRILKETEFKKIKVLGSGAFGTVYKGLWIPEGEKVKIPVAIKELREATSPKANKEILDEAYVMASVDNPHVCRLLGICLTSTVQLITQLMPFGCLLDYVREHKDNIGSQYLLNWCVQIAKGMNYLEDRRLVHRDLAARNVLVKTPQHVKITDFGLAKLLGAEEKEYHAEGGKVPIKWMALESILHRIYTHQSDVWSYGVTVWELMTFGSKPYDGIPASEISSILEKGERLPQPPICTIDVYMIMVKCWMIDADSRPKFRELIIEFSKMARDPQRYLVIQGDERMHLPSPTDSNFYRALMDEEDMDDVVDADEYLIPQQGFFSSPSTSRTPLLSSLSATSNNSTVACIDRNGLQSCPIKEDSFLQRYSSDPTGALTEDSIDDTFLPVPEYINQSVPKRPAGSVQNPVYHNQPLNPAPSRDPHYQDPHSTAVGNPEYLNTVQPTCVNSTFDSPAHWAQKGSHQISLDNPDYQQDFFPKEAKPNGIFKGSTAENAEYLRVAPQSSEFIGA

| Structure (SMILES) | IC50 [1] | IC50 [2] | other results |
| --- | --- | --- | --- |
| Brc1cccc(Nc2ncnc3ccc4cc[nH]c4c23)c1 | 1.24 nM |  |  |
| Brc1cccc(Nc2ncnc3c2ccc2[nH]cnc23)c1 | 272 nM |  |  |
| Brc1cccc(Nc2ncnc3cc4[nH]nnc4cc23)c1 |  | 4.1 nM |  |
| CN(C)CCn1cnc2cc3c(Nc4cccc(Br)c4)ncnc3cc21 |  | 22 nM |  |
| Cn1cnc2cc3ncnc(Nc4cccc(Br)c4)c3cc21 | 0.01 nM |  |  |
| CN(C)CCn1cnc2cc3ncnc(Nc4cccc(Br)c4)c3cc21 |  | 1.32 nM |  |
| Brc1cccc(Nc2ncnc3cc4ncsc4cc23)c1 | 44 nM |  |  |
| Brc1cccc(Nc2ncnc3cc4cn[nH]c4cc23)c1 |  | 0.34 nM |  |
| Brc1cccc(Nc2ncnc3cc4[nH]ncc4cc23)c1 |  | 0.44 nM |  |
| Brc1cccc(Nc2ncnc3cc4[nH]ccc4cc23)c1 | 0.44 nM |  |  |
| Cc1nc2cc3ncnc(Nc4cccc(Br)c4)c3cc2[nH]1 | 0.29 nM |  |  |
| CN(C)CCn1cnc2c(Cl)c3c(Nc4cccc(Br)c4)ncnc3cc21 |  | 203 nM |  |
| Brc1cccc(Nc2ncnc3cc4ccccc4cc23)c1 | 0.003 nM |  |  |
| Brc1cccc(Nc2ncnc3cc4[nH]cnc4cc23)c1 |  |  | IC50 [3]: > 50000 nM; IC50 [4]: > 50000 nM; IC50 [5]: > 50000 nM; IC50 [6]: > 50000 nM; IC50 [7]: > 50000 nM; IC50 [8]: > 50000 nM; IC50 [9]: > 50000 nM; IC50 [10]: > 50000 nM |
